Test results as given in US20230391725A1, “MODULATORS OF THE INTEGRATED STRESS RESPONSE PATHWAY” (Evotec International GmbH, priority 2020, published 2023).

Each molecule was assayed on ATF4 (assay: HEK-ATF4 High Content Imaging assay (prevention of Tunicamycin induced ISR)). Conditions: Homo sapiens, Wild-type HEK293 cells, 6 h incubation, ATF4 signal ratio between nucleus and cytoplasm.
Assay type: cell-based
Protocol: Example compounds were tested in the HEK-ATF4 High Content Imaging assay to assess their pharmacological potency to prevent Tunicamycin induced ISR. Wild-type HEK293 cells were plated in 384-well imaging assay plates at a density of 12,000 cells per well in growth medium (containing DMEM/F12, 10% FBS, 2 mM L-Glutamine, 100 U/mL Penicillin—100 μg/mL Streptomycin) and incubated at 37° C., 5% CO2. 24 h later, the medium was changed to 50 μL assay medium per well (DMEM/F12, 0.3% FBS, 2mM L-Glutamine, 100 U/mL Penicillin—100 μg/mL Streptomycin). Example compounds were serially diluted in DMSO, spotted into intermediate plates and prediluted with assay medium containing 3.3 […] Tunicamycin to give an 11-fold excess of final assay concentration. In addition to the example compound testing area, the plates also contained multiples of control wells for assay normalization purposes, wells containing Tunicamycin but no example compounds (High control), as well as wells containing neither example compound nor Tunicamycin (Low control). The assay was started by transferring 5 μL from the intermediate plate into the assay plates, followed by incubation for 6 h at 37° C., 5% CO2. Subsequently, cells were fixed (4% PFA in PBS, 20 min at r.t.) and submitted to indirect ATF4 immunofluorescence staining (primary antibody rabbit anti ATF4, clone D4B8, Cell Signaling Technologies; secondary antibody Alexa Fluor 488 goat anti-rabbit IgG (H+L), Thermofisher Scientific). Nuclei were stained using Hoechst dye (Thermofisher Scientific), and plates were imaged on an Opera Phenix High Content imaging platform equipped with 405 nm and 488 nm excitation. Finally, images were analyzed using script based algorithms. The main readout HEK-ATF4 monitored the ATF4 signal ratio between nucleus and cytoplasm. Tunicamycin induced an increase in the overall ATF4 ratio signal, which was prevented by ISR modulating example compounds. In addition, HEK-CellCount readout was derived from counting the number of stained nuclei corresponding to healthy cells. This readout served as an internal toxicity control.
For `O=C(COc1ccc(Cl)c(F)c1)N[C@@H]1CC[C@@H](C(=O)Nc2ccc(Cl)cc2)NC1` [Example 9, (2S,5R)-5-[2-(4-chloro-3-fluorophenoxy)acetamido]-N-(4-chlorophenyl)piperidine-2-carboxamide], the IC50 was 2000 to 15000 nM. `O=C(COc1ccc(Cl)c(F)c1)N[C@H]1CC[C@H](C(=O)NCc2ccc(C(F)(F)F)cc2)NC1` [Example 4, (2R,5S)-5-[2-(4-chloro-3-fluorophenoxy)acetamido]-N-{[4-(trifluoromethyl)phenyl]methyl}piperidine-2-carboxamide] showed an IC50 of 1 to 500 nM. For `O=C(COc1ccc(Cl)c(F)c1)N[C@H]1CC[C@H](C(=O)N[C@H]2CC[C@H](OC(F)(F)F)C2)NC1` (single isomer, unassigned) [Example 53], the IC50 was 1 to 500 nM. `O=C(COc1ccc(Cl)c(F)c1)N[C@H]1CC[C@H](C(=O)Nc2ccc(F)c(C(F)(F)F)c2)NC1` [Example 21, (2R,5S)-5-[2-(4-chloro-3-fluorophenoxy)acetamido]-N-[4-fluoro-3-(trifluoromethyl)phenyl]piperidine-2-carboxamide] gave an IC50 of 1 to 500 nM. `Cc1c(NC(=O)[C@H]2CC[C@H](NC(=O)COc3ccc(Cl)c(F)c3)CN2)cnn1CC(F)(F)F` [Example 26, (2R,5S)-5-[2-(4-chloro-3-fluorophenoxy)acetamido]-N-[5-methyl-1-(2,2,2-trifluoroethyl)-1H-pyrazol-4-yl]piperidine-2-carboxamide] showed an IC50 of 2000 to 15000 nM. `O=C(COc1ccc(Cl)c(F)c1)N[C@H]1CC[C@H](C(=O)Nc2cc(C(F)(F)F)ccn2)NC1` [Example 38, (2R,5S)-5-[2-(4-chloro-3-fluorophenoxy)acetamido]-N-[4-(trifluoromethyl)pyridin-2-yl]piperidine-2-carboxamide] showed an IC50 of 500 to 2000 nM. `O=C(COc1ccc(Cl)c(F)c1)N[C@H]1CC[C@H](C(=O)N2CC(OCCOC(F)(F)F)C2)NC1` [Example 5, 2-(4-chloro-3-fluorophenoxy)-N-[(3S,6R)-6-{3-[2-(trifluoromethoxy)ethoxy]azetidine-1-carbonyl}piperidin-3-yl]acetamide] was tested, and the IC50 was 2000 to 15000 nM. With `O=C(COc1ccc(Cl)c(F)c1)N[C@H]1CC[C@H](C(=O)Nc2cc(C(F)(F)F)cc(C(F)(F)F)c2)NC1` [Example 33, (2R,5S)-N-[3,5-bis(trifluoromethyl)phenyl]-5-[2-(4-chloro-3-fluorophenoxy)acetamido]piperidine-2-carboxamide] the IC50 was 500 to 2000 nM. With `O=C(COc1ccc(Cl)c(F)c1)N[C@H]1CC[C@H](C(=O)Nc2cccc(OC(F)(F)F)c2)NC1` [Example 13, (2R,5S)-5-[2-(4-chloro-3-fluorophenoxy)acetamido]-N-[3-(trifluoromethoxy)phenyl]piperidine-2-carboxamide] the IC50 was 1 to 500 nM. In the case of `O=C(COc1ccc(Cl)c(F)c1)N[C@H]1CC[C@H](C(=O)N[C@H]2C[C@@H](OC(F)(F)F)C2)NC1` [Example 27, (2R,5S)-5-[2-(4-chloro-3-fluorophenoxy)acetamido]-N-[(1s,3s)-3-(trifluoromethoxy)cyclobutyl]piperidine-2-carboxamide], the IC50 is reported as 500 to 2000 nM. For `O=C(COc1ccc(Cl)c(F)c1)N[C@H]1CC[C@H](C(=O)Nc2cccc(Cl)c2)NC1` [Example 11, (2R,5S)-5-[2-(4-chloro-3-fluorophenoxy)acetamido]-N-(3-chlorophenyl)piperidine-2-carboxamide], the IC50 was 1 to 500 nM. `O=C(COc1ccc(Cl)c(F)c1)N[C@H]1CC[C@H](C(=O)Nc2ccn(C(F)(F)F)n2)NC1` [Example 34, (2R,5S)-5-[2-(4-chloro-3-fluorophenoxy)acetamido]-N-[1-(trifluoromethyl)-1H-pyrazol-3-yl]piperidine-2-carboxamide] showed an IC50 of 500 to 2000 nM. For `O=C(COc1ccc(Cl)c(F)c1)N[C@H]1CC[C@H](C(=O)Nc2cc(C(F)(F)F)ccc2F)NC1` [Example 35, (2R,5S)-5-[2-(4-chloro-3-fluorophenoxy)acetamido]-N-[2-fluoro-5-(trifluoromethyl)phenyl]piperidine-2-carboxamide], the IC50 was 500 to 2000 nM. For `O=C(COc1ccc(Cl)c(F)c1)N[C@H]1CC[C@H](C(=O)N2CCc3c2cccc3C(F)(F)F)NC1` [Example 45, 2-(4-chloro-3-fluorophenoxy)-N-[(3S,6R)-6-[4-(trifluoromethyl)-2,3-dihydro-1H-indole-1-carbonyl]piperidin-3-yl]acetamide], the IC50 was 2000 to 15000 nM. `O=C(COc1ccc(Cl)c(F)c1)N[C@H]1CC[C@H](C(=O)Nc2cncc(C(F)(F)F)n2)NC1` [Example 51, (2R,5S)-5-[2-(4-chloro-3-fluorophenoxy)acetamido]-N-[6-(trifluoromethyl)pyrazin-2-yl]piperidine-2-carboxamide] was tested, and the IC50 was 1 to 500 nM. With `O=C(COc1ccc(Cl)c(F)c1)N[C@H]1CC[C@H](C(=O)Nc2cncc(C(F)(F)F)c2)NC1` [Example 22, (2R,5S)-5-[2-(4-chloro-3-fluorophenoxy)acetamido]-N-[5-(trifluoromethyl)pyridin-3-yl]piperidine-2-carboxamide] the IC50 was 1 to 500 nM. `O=C(COc1ccc(Cl)c(F)c1)N[C@H]1CC[C@H](C(=O)NOCCOC(F)(F)F)NC1` [Example 6, (2R,5S)-5-[2-(4-chloro-3-fluorophenoxy)acetamido]-N-[2-(trifluoromethoxy)ethoxy]piperidine-2-carboxamide] was tested, and the IC50 was 2000 to 15000 nM. Work on `O=C(COc1ccc(Cl)c(F)c1)N[C@H]1CC[C@H](C(=O)Nc2ccc(Cl)cc2)NC1` [Example 8, (2R,5S)-5-[2-(4-chloro-3-fluorophenoxy)acetamido]-N-(4-chlorophenyl)piperidine-2-carboxamide] yielded an IC50 of 1 to 500 nM. With `O=C(COc1ccc(Cl)c(F)c1)N[C@H]1CC[C@H](C(=O)NCc2ccc(C(F)(F)F)o2)NC1` [Example 17, (2R,5S)-5-[2-(4-chloro-3-fluorophenoxy)acetamido]-N-{[5-(trifluoromethyl)furan-2-yl]methyl}piperidine-2-carboxamide] the IC50 was 2000 to 15000 nM.
